From patent publication EP4105215A1, “CO-CRYSTAL OF APIXABAN WITH A CARBOXYLIC ACID” (University of Limerick, priority 2021, dated 2022)

Experiments:
[1] = Dissolution / solubility in PBS 6.8 analysed by HPLC; type: physicochemical; conditions: PBS 6.8 at 37°C, triplicate
Procedure: 25 mg equivalent of APX was sieved to 75-100µm using standard-mesh sieve and the resulting slurry was added to 500 mL phosphate buffer solution (PBS) 6.8 at 37°C stirring at 100 rpm. 1mL aliquots were taken at 1 3, 5, 10, 15, 30, 60, 120, 240, 480, 720 and 1440 minutes. Each aliquot filtered through a 0.45 µm Whattmann syringe filter. 500 µL of filtered aliquot and 500 µL of methanol were pipetted into a vial and injected to HPLC. All dissolution experiments for APX and cocrystals were carried in triplicates.
The dissolution aliquots were analysed using a Shimadzu (LC-20A) HPLC instrument with a Gemini® C18 (250 x 4.6 x 5 µm) column. The wavelength was set to 235nm with an injection volume of 10 µL and a flow rate of 1 mL/min with the oven set at 40°C.
Physicochemical properties such as PBS 6.8 solubility were analysed by high performance liquid chromatography (HPLC). […] Table 4: Solubility of APX and respective cocrystals in PBS 6.8 at 37°C

[2] = single 10 mg dose; cited from earlier work

For COc1ccc(-n2nc(C(N)=O)c3c2C(=O)N(c2ccc(N4CCCCC4=O)cc2)CC3)cc1 [APX, 1-(4-methoxyphenyl)-7-oxo-6-(4-(2-oxopiperidin-1-yl)phenyl)-4,5,6,7-tetrahydro-1H-pyrazolo[3,4-c]pyridine-3-carboxamide], the “Acute, T= 60 mins Conc” value ([1]; 60 mins) is given as 0.0241 mg/mL, the “Chronic, T= 720mins Conc” value ([1]; 720 mins) is given as 0.0303 mg/mL and the oral bioavailability [2] is given as “about 50%”.
